Tests used:
Phaedon cochleariae = Phaedon cochleariae larvae test; conditions: sprayed cabbage leaves
Pyrenophora teres = Pyrenophora teres test (in vitro)/microtitre plates; type: cell-based; conditions: 120 h, 5 days incubation, single active compound, read-out: % efficacy
Experimental: (§1) The microtest is carried out in microtitre plates using Potato Dextrose Broth (PDB) as liquid test medium. The active compounds are used as technical-grade a.i., dissolved in methanol. For inoculation, a spore suspension of Pyrenophora teres is used. After 5 days of incubation in the dark and with shaking (10 Hz), the transparency in each filled cavity of the microtitre plates is determined with the aid of a spectrophotometer.

Rhizoctonia solani = Rhizoctonia solani test (in vitro)/microtitre plates; type: cell-based; conditions: 168 h, 7 days incubation, single active compound, read-out: % efficacy
Experimental: as §1, with “acetone.” for “methanol.”, “mycelium” for “spore”, “Rhizoctonia solani” for “Pyrenophora teres”, “7” for “5”

Row | SMILES | Kill in % after 3 d (Phaedon cochleariae; 4 ppm) | Emax at 1 ppm (Pyrenophora teres) | Emax at 0.3 ppm (Rhizoctonia solani) | Kill in % after 1 d (Phaedon cochleariae; 100 ppm) | Kill in % after 3 d (Phaedon cochleariae; 200 ppm) | Kill in % after 1 d (Phaedon cochleariae; 500 ppm)
1 | CNC(=O)c1cc(Cl)cc(C)c1NC(=O)c1cc(Br)nn1-c1ncccc1Cl [Rynaxypyr, 3-bromo-N-[4-chloro-2-methyl-6-(methylcarbamoyl)phenyl]-1-(3-chloropyridin-2-yl)-1H-pyrazole-5-carboxamide] | 80% | 11% | – | – | – | –
2 | CC(c1ccc(C(F)(F)F)nc1)S(C)(=O)=NC#N (centres unmarked) [sulfoxaflor] | – | – | 0% | 25% | – | –
3 | Cc1nn(C)c(F)c1C(=O)Nc1ccccc1C(C)CC(C)C (centres unmarked) [penflufen, N-[2-(1,3-dimethylbutyl)phenyl]-5-fluoro-1,3-dimethyl-1H-pyrazole-4-carboxamide] | – | 26% | 20% | – | 0% | 0%
